In patent US7601756B2, “Method of treatment for irritable bowel syndrome” (Snowden Pharmaceuticals, LLC, priority 2003, dated 2009):

Columns and labels:
[1] = tested on: irritable bowel syndrome (IBS) symptoms; experiment: Patient subjective evaluation of IBS symptoms before and after treatment (case studies); type: in vivo, human
Experimental: Each patient subjectively evaluated his or her symptoms both before and after treatment on a scale from 0 to 10 with 0 representing the absence of symptoms and 10 indicating the most severe symptoms. […] Patient 2 also was treated with Gemfibrozil 600 mg twice daily. […] Patient 3 was originally treated with Gemfibrozil 600 mg twice daily.

[2] = tested on: HDL (high density lipoprotein) level; experiment: HDL level of Patient 1 after treatment; type: in vivo, human; settings: Gemfibrozil 600 mg twice a day, later testing
Excerpt: Patient 1 suffered from a variety of conditions including diabetes, post traumatic attention deficit disorder, and irritable bowel syndrome. […] However, upon resuming the Gemfibrozil treatment, the levels were again reduced.

[3] = Patient 1, Gemfibrozil 600 mg twice a day, within a day, scale 0 to 10, before 8
[4] = Patient 2, Gemfibrozil 600 mg twice daily, after 1.5 days, scale 0 to 10, before 0
[5] = Patient 3, Gemfibrozil 600 mg twice daily, after 2 days, scale 0 to 10, before 7

Structure (SMILES): CC(C)OC(=O)C(C)(C)Oc1ccc(C(=O)c2ccc(Cl)cc2)cc1 [micronized fenofibrate, 2-(4-(4-chlorobenzoyl)phenoxy)-2-methyl-propanoic acid 1-methyl ethyl ester]
- Patient evaluation of symptoms in all categories ([1]; Patient 3, micronized fenofibrate 200 mg daily, after discontinuing Gemfibrozil, scale 0 to 10): 0

Structure (SMILES): Cc1ccc(C)c(OCCCC(C)(C)C(=O)O)c1 [Gemfibrozil, 5-(2,5-dimethylphenoxy)-2,2-dimethylpentanoic acid]
- Change of evaluation of IBS symptoms ([1]; Patient 1, Gemfibrozil 600 mg twice a day, within a day): significant improvement
- Patient evaluation of symptoms: Gas (After) ([1]; Patient 1, Gemfibrozil 600 mg twice a day, within a day, scale 0 to 10 (0 absence, 10 most severe), before 4): 1
- Patient evaluation of symptoms: Constipation (After) ([1]; Patient 1, Gemfibrozil 600 mg twice a day, within a day, scale 0 to 10, before 0): 0
- Patient evaluation of symptoms: Overall (After) ([1]; Patient 1, Gemfibrozil 600 mg twice a day, within a day, scale 0 to 10, before 6.5): 1
- Patient evaluation of symptoms: Cramps/Pain (After) [1, 3]: 1
- Patient evaluation of symptoms: Mucus (After) [1, 3]: 2
- Patient evaluation of symptoms: Diarrhea (After) ([1]; Patient 1, Gemfibrozil 600 mg twice a day, within a day, scale 0 to 10, before 9): 1
- IBS symptom levels upon resuming treatment ([1]; Patient 1, Gemfibrozil treatment resumed): again reduced
- IBS symptoms on discontinued use ([1]; Patient 1, use of Gemfibrozil discontinued): returned to the before levels
- Side effect experienced under treatment ([1]; Patient 2, Gemfibrozil 600 mg twice daily): occasional constipation
- IBS symptoms after treatment ([1]; Patient 2, Gemfibrozil 600 mg twice daily, after 1.5 days of treatment): virtually disappeared
- Patient evaluation of symptoms: Gas (After) ([1]; Patient 2, Gemfibrozil 600 mg twice daily, after 1.5 days of treatment, scale 0 to 10, before 4.5): 0
- Patient evaluation of symptoms: Constipation (After) [1, 4]: 3
- Patient evaluation of symptoms: Mucus (After) [1, 4]: 0
- Patient evaluation of symptoms: Cramps/Pain (After) ([1]; Patient 2, Gemfibrozil 600 mg twice daily, after 1.5 days, scale 0 to 10, before 5): 0
- Patient evaluation of symptoms: Diarrhea (After) ([1]; Patient 2, Gemfibrozil 600 mg twice daily, after 1.5 days, scale 0 to 10, before 8.5): 0
- Patient evaluation of symptoms: Overall (After) ([1]; Patient 2, Gemfibrozil 600 mg twice daily, after 1.5 days, scale 0 to 10, before 9): 1
- IBS symptoms after treatment ([1]; Patient 3, Gemfibrozil 600 mg twice daily, after 2 days of treatment): greatly improved
- Patient evaluation of symptoms: Gas (After) ([1]; Patient 3, Gemfibrozil 600 mg twice daily, after 2 days of treatment, scale 0 to 10, before 3): 1
- Patient evaluation of symptoms: Constipation (After) ([1]; Patient 3, Gemfibrozil 600 mg twice daily, after 2 days, scale 0 to 10, before 0): 0
- Patient evaluation of symptoms: Mucus (After) ([1]; Patient 3, Gemfibrozil 600 mg twice daily, after 2 days, scale 0 to 10, before 3): 0
- Patient evaluation of symptoms: Cramps/Pain (After) [1, 5]: 2
- Patient evaluation of symptoms: Overall (After) [1, 5]: 2
- Patient evaluation of symptoms: Diarrhea (After) ([1]; Patient 3, Gemfibrozil 600 mg twice daily, after 2 days, scale 0 to 10, before 9): 3
- HDL level after treatment [2]: increased
